Results as given in patent US9364523B2 (priority 2014, dated 2016).
Residues, ends and D or L forms follow the SMILES beside them. *: point of attachment. Cbz = O=C(OCc1ccccc1)*

Legend:
transfected COS cells = assay type: cell-based
transfected HEK cells = assay type: cell-based

CC(C)C[C@@H](C=O)NC(=O)[C@H](CC(C)C)NC(=O)[C@H](CC(C)C)NC(=O)OCc1ccccc1 [MG132] (Cbz-Leu-Leu-Leu-aldehyde)
MTI-PAA expression in the presence of proteasome inhibitor (transfected COS cells): enhanced | MTI-PAA levels in the presence of proteasome inhibitor (transfected HEK cells): increased levels of MTI-PAA
